# Laboratory results from US10512656B2, “Compositions and methods for the treatment of lysosomal storage disorders and disorders characterized by lysosomal dysfunction” (Baylor College of Medicine, priority 2016, dated 2019).
# Assays:
# [1] = tested on: Cln3^Δex7-8 mice; assay: Hot plate test (pain sensitivity); format: in vivo, mouse; details: six-month-old Cln3^Δex7-8 mice, 50° C. surface
# Description: FIG. 1. Amelioration of disease pathology in JNCL mice fed with trehalose. […] Treated (Tre) Cln3^Δex7-8 mice: n=13. Untreated (UT) Cln3^4ex7-8 mice: n=12. (b) Weight of brains from 12-month-old WT and Cln3^Δex7-8 mice with or without trehalose treatment. All groups of mice, n=4 or 5. (c) Fractional anisotropy of brains from 12-month-old WT and Cln3^Δex7-8 mice with or without trehalose treatment. Left panel: representative coronal images of the four groups of brains; corpus callosa are indicated by the yellow arrowhead. Right panel: quantification of callosal volume. All groups of mice, n=3 or 4. Scale bar, […]. Three-dimensional reconstructions of the corpus callosum in mice from treated and control groups are reported in Supplementary Movies 1-4. (d) In the hot plate test, Cln3^Δex7-8 mice respond slower when placed on a 50° C. heated metal surface compared with wild-type (WT) littermates, indicating reduced pain sensitivity. Trehalose (Tre) treatment rescued this phenotype in Cln3^Δex7-8 mice. All groups of mice, n=14-19. Data represent means±s.e.m. *P<0.05, **P<0.01, ***P<0.001.
# [2] = molecular target: T1, mTORC1 (Mus musculus, UniProt Q9JLN9); assay: Immunoblot of mTORC1 substrates in WT and Tsc2-/- MEFs; format: cell-based; details: Tsc2-/- and control MEFs, trehalose 100 mM 24 h
# T1 construct: 100 mM) for 24 h or left untreated; endogenous in cells; host or cells: wild-type and Tsc2-/- mouse embryonic fibroblasts
# Experimental: (b) Quantification of TFEB subcellular localization (C, cytoplasmic; N, nuclear) after 24 h of trehalose treatment (Tre) or in untreated cells (UT). Scale bars in a, b is 40 μm. (c) Immunoblot analyses show expression levels of substrates downstream of mTORC1. Wild-type (WT) and TSC2 null MEF cells were treated with trehalose (Tre; 100 mM) for 24 h or left untreated. As controls, cells were treated with Torin 1 (300 nM) or rapamycin (300 nM) for 2 h before extracting the lysates. Phospho- and total S6K1 (P-S6K1 and T-S6K1), phospho- and total S6 (P-S6 and T-S6) and phospho- and total 4E-BP1 (P-4E-BP1 and T-4E-BP1) were detected as readouts of mTORC1 activity. […]
# Brain tissue and cultured cells were collected and lysed in RIPA buffer (50 mM Tris-HCl, ph 7.4, 1% NP40, 0.5% Na-deoxycholate, 0.1% SDS, 150 mM NaCl, 2 mM EDTA and 50 mM NaF) including a cocktail of protease (Roche) and phosphatase (SIGMA) inhibitors. Protein concentrations were measured with the bicinchoninic acid protein assay kit (Pierce, Rockford, Ill.), using bovine serum albumin as standard. […] Western blot images were acquired by LAS 4000 (GE Healthcare) and quantified using ImageJ. […]
# [3] = cited from earlier work
# [4] = tested on: Cln3^Δex7-8 mice; assay: Corpus callosum volume by MRI; format: in vivo, mouse; details: 12-month-old Cln3^Δex7-8 mice, trehalose; untreated 12.96±0.43 mm^3
# Experimental: Mice were transcardially perfused before imaging. The head was removed and then the skin, muscle, ears, nose tip and lower jaw were removed to expose the skull. The head was fixed overnight in 4% paraformaldehyde at 4° C. The head was then transferred to 40 mLs of 0.01% sodium azide in PBS and rocked for 7 days at 4° C. The head was transferred to a solution of 5 mM gadopentetate dimeglumine (Bayer HealthCare Pharmaceuticals Inc., Wayne, N.J.) and 0.01% sodium azide in PBS and rocked for 25-35 days at 4° C. Incubation with gadopentetate dimeglumine improved the signal-to-noise ratio. Before imaging, the head was equilibrated to room temperature for 6-8 h.
# A total of 48 scans per mouse were acquired on a 9.4 T Bruker Avance Biospec Spectrometer, 21-cm bore horizontal scanner with 35 mm volume resonator (Bruker BioSpin, Billerica, Mass.) with Paravision 5.0 software (Bruker Biospin, Billerica, Mass.). The three-dimensional DTI scan parameters are as follows: spin echo, b-value=0 and 1,000 s/mm^2, 20 diffusion directions with one non-diffusion weighted image, TR=500 ms, TE=14.8 ms, FOV=1.7×1.2×2.4 cm or 2.0×1.4×3.2 cm, matrix=128×96×96, NEX=1, δ=3 ms, Δ=7 ms. The acquisition time was ˜15 h.
# The MRI images were first processed on DTI studio to extrapolate the fractional anisotropy. […]
# [5] = molecular target: T2, GSK3β (Homo sapiens, UniProt P49841); assay: GSK3β immunoblot in HeLa cells; format: cell-based; details: trehalose 24 h
# T2 construct: endogenous in cells; host or cells: HeLa
# T2 sequence (P49841 whole entry): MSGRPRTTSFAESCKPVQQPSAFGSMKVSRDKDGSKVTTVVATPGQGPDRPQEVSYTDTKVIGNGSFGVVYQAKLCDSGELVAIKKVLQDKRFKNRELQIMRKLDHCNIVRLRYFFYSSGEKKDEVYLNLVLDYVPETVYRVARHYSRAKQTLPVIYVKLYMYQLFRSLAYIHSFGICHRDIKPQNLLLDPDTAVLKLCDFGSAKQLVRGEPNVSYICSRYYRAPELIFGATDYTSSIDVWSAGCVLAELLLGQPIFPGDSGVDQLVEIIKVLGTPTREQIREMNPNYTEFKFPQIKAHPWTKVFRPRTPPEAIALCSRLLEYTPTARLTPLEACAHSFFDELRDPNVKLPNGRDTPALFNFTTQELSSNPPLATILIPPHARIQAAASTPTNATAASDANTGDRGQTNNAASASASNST
# Description: FIG. 16. […] GAPDH was used as a loading control. […] Images have been cropped for presentation.
# [6] = tested on: TFEB S211; assay: TFEB S211 phosphorylation (Phospho(Ser)-14-3-3 binding motif immunoblot); format: cell-based, human; details: HeLa cells transfected with TFEB-Flag, trehalose 24 h
# Experimental: FIG. 9. […] TFEB-Flag was immunoprecipitated from HeLa cells transfected with TFEB-Flag and treated with trehalose for 24 h or left untreated. Immunoblot analyses were performed using antibody against Phospho(Ser)-14-3-3 binding motif and control antibodies.
# [7] = tested on: TFEB; assay: TFEB nuclear translocation in HeLa cells with WT or constitutively active mTOR; format: cell-based, human; details: cells transfected with WT mTOR or mTOR^E2419K, trehalose 100 mM 24 h
# Experimental: (b) Quantification of TFEB subcellular localization (C, cytoplasmic; N, nuclear) after 24 h of trehalose treatment (Tre) or in untreated cells (UT). Scale bars in a, b is 40 μm. (c) Immunoblot analyses show expression levels of substrates downstream of mTORC1. Wild-type (WT) and TSC2 null MEF cells were treated with trehalose (Tre; 100 mM) for 24 h or left untreated. As controls, cells were treated with Torin 1 (300 nM) or rapamycin (300 nM) for 2 h before extracting the lysates. Phospho- and total S6K1 (P-S6K1 and T-S6K1), phospho- and total S6 (P-S6 and T-S6) and phospho- and total 4E-BP1 (P-4E-BP1 and T-4E-BP1) were detected as readouts of mTORC1 activity. […] (f) HeLa cells co-transfected with TFEB-3×FLAG and mTOR or (g) TFEB-3×FLAG and constitutively active mTOR (CA-mTOR, […]) constructs were treated with trehalose (100 mM for 24 h) or left untreated before immunofluorescent labelling of TFEB (red) and mTOR (green) with FLAG and mTOR antibodies, respectively. Scale bar, 10 μm (d-g). Data represent means±s.e.m.
# For immunofluorescence assay, cells were grown on coverslips in 24-well plates. After the treatment, cells were washed with PBS and fixed with methanol for 10 min. Cells were then blocked with blocking reagent (0.1% saponin, 10% bovine serum in PBS) for 1 h and incubated with appropriate primary antibody(s) (1:100) for 3 h at room temperature. […]
smiles,measurement,setting,value
"OC[C@H]1O[C@H](O[C@H]2O[C@H](CO)[C@@H](O)[C@H](O)[C@H]2O)[C@H](O)[C@@H](O)[C@@H]1O [trehalose, a-D-glucopyranosyl a-D-glucopyranoside]",pain sensitivity in hot plate assay,[1],fully restored
same,mTORC1 signalling,[2],does not alter mTORC1 signalling
same,oral amount that may cause diarrhea and bloating,[3]; oral,40-50 grams per day
same,safety and toxicity,"[3]; orally and intravenously, doses substantially higher than the intended therapeutic dose",found to be safe
same,corpus callosum volume,[4],15.02±0.33 mm^3
same,GSK3β activity,[5],no detectable effect
same,phosphorylation of TFEB S211,[6],does not modify phosphorylation of TFEB S211
same,TFEB nuclear translocation,[7],induces nuclear translocation of TFEB
